Where two headings read alike, the source gives them in different places.
Experiments:
[1] = target: Tyrosyl-DNA phosphodiesterase 1 (TDP1) (Homo sapiens, UniProt Q9NUW8); assay: TDP1 inhibition; assay type: biochemical; conditions: scores correspond to IC50 ranges
Text: Tyrosyl-DNA phosphodiesterase 1 (TDP1) is a DNA repair enzyme that repairs cytotoxic DNA damage induced by Top1 inhibitors.

HOP-62 (Lung) = assay: NCI Developmental Therapeutics antiproliferative assay, HOP-62; assay type: cell-based, human
Procedure: (§1) Biological Results. The indenoisoquinoline analogues were tested for antiproliferative activity in the National Cancer Institute's Developmental Therapeutics Assay against cell lines derived from approximately 60 different human tumors.

MCF7 (Breast) = assay: NCI Developmental Therapeutics antiproliferative assay, MCF7; assay type: cell-based, human
Procedure: (§2) Biological Results. The indenoisoquinoline analogues were tested for antiproliferative activity in the National Cancer Institute's Developmental Therapeutics Assay against cell lines derived from approximately 60 different human tumors. […] Results are reported in Table 2 as GI50 values for selected cell lines, and overall antiproliferative potency is quantified as a mean-graph midpoint (MGM).

[2] = system: all human cancer cell lines successfully tested; assay: NCI-60 cell line assay, mean-graph midpoint; assay type: cell-based; conditions: for MGM (mean graph midpoint for growth inhibition): all human cancer cell lines tested, 10^−8 to 10^−4 molar; for GI50: Homo sapiens, Table 3, NCI-60, unit inferred, read-out: MGM GI50
Procedure: as §1, with “tumors. […] The cytotoxicities of the compounds to cultured cancer cells were measured in the National Cancer Institute's 60 cell line assay (a.k.a. NCI-60).” for “tumors.”

UACC-62 (Melanoma) = assay: NCI Developmental Therapeutics antiproliferative assay, UACC-62; assay type: cell-based, human
Procedure: as §1

SF-539 (CNS) = assay: NCI Developmental Therapeutics antiproliferative assay, SF-539; assay type: cell-based, human
Procedure: as §2

HCT-116 (Colon) = assay: NCI Developmental Therapeutics antiproliferative assay, HCT-116; assay type: cell-based, human
Procedure: as §1

OVCAR-3 (Ovarian) = assay: NCI Developmental Therapeutics antiproliferative assay, OVCAR-3; assay type: cell-based, human
Procedure: as §2

DU-145 (Prostate) = assay: NCI Developmental Therapeutics antiproliferative assay, DU-145; assay type: cell-based, human
Procedure: as §1

SN12C (Renal) = assay: NCI Developmental Therapeutics antiproliferative assay, SN12C; assay type: cell-based, human
Procedure: as §2

[3] = system: cell lines derived from approximately 60 different human tumors; assay: NCI initial one-dose screening assay; assay type: cell-based; conditions: percentage of cell growth, one-dose assay at 10 μM
Human recombinant Top1 = target: T1, Human recombinant Top1 (Homo sapiens, UniProt P11387); assay: Top1-mediated DNA cleavage assay; conditions: scale relative to 1 μM camptothecin
T1 sequence (P11387 1-765): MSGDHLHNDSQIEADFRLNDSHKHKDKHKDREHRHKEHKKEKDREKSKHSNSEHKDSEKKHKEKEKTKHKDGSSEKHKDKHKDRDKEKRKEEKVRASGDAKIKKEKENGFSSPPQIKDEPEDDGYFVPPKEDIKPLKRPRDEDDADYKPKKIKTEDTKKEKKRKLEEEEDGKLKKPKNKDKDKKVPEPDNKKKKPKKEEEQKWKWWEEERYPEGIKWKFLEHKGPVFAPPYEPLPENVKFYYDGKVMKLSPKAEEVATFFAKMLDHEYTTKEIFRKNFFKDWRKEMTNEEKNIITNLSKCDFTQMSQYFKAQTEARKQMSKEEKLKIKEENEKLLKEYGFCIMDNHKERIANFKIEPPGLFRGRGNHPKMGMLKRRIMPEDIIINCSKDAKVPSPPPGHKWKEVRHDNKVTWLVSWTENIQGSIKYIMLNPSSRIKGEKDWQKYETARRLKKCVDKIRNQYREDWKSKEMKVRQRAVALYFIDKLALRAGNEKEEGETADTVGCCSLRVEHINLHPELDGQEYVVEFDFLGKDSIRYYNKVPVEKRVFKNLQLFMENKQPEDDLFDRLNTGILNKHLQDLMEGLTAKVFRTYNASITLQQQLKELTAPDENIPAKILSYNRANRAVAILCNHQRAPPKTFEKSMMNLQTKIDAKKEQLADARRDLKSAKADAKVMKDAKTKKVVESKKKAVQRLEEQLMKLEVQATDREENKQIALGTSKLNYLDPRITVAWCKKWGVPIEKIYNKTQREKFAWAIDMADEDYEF
Procedure: Topoisomerase I-Mediated DNA Cleavage Reactions. Human recombinant Top1 was purified from Baculovirus as previously described. […] Unincorporated [32]P-dGTP was removed using mini Quick Spin DNA columns (Roche, Indianapolis, Ind.), and the eluate containing the 3'-end-labeled DNA substrate was collected. […] The reactions were terminated by adding SDS (0.5% final concentration) followed by the addition of two volumes of loading dye (80% formamide, 10 mM sodium hydroxide, 1 mM sodium EDTA, 0.1% xylene cyanol, and 0.1% bromphenol blue). Aliquots of each reaction were subjected to 20% denaturing PAGE. Gels were dried and visualized by using a Phosphoimager and ImageQuant software (Molecular Dynamics).

[4] = Homo sapiens, HOP-62, 50% growth inhibition, read-out: Cytotoxicity (GI50) Lung HOP-62
[5] = Homo sapiens, MCF7, 50% growth inhibition, read-out: Cytotoxicity (GI50) Breast MCF7
[6] = Homo sapiens, UACC-62, 50% growth inhibition, read-out: Cytotoxicity (GI50) Melanoma UACC-62
[7] = Homo sapiens, SF-539, 50% growth inhibition, read-out: Cytotoxicity (GI50) CNS SF-539
[8] = Homo sapiens, HCT-116, 50% growth inhibition, read-out: Cytotoxicity (GI50) Colon HCT-116
[9] = Homo sapiens, OVCAR-3, 50% growth inhibition, read-out: Cytotoxicity (GI50) Ovarian OVCAR-3
[10] = Homo sapiens, DU-145, 50% growth inhibition, read-out: Cytotoxicity (GI50) Prostate DU-145
[11] = Homo sapiens, SN12C, 50% growth inhibition, read-out: Cytotoxicity (GI50) Renal SN12C

Sequence of Tyrosyl-DNA phosphodiesterase 1 (TDP1) (Q9NUW8 whole entry, species assumed): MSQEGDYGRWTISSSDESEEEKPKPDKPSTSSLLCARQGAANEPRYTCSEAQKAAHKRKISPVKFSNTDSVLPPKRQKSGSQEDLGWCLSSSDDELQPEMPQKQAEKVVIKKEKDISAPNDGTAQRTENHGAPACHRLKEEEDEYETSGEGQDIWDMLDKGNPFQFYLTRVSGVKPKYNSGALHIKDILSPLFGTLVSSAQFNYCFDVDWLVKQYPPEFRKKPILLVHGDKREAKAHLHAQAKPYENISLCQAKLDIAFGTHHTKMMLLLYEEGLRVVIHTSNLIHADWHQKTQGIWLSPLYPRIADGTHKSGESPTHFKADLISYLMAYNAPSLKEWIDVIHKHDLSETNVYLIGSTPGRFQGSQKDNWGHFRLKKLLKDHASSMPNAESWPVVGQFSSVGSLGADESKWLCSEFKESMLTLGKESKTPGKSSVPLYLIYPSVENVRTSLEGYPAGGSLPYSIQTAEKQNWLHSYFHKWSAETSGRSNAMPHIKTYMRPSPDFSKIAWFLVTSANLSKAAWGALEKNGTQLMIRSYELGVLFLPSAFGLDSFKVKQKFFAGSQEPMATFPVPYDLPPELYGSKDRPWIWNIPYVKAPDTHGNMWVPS

Row | Structure (SMILES) | IC50 [1] [µM] | GI50 (HOP-62 (Lung); [4]) [µM] | GI50 (MCF7 (Breast); [5]) [µM] | MGM (mean graph midpoint for growth inhibition) [2] [µM] | GI50 (UACC-62 (Melanoma); [6]) [µM] | GI50 (SF-539 (CNS); [7]) [µM] | GI50 (OVCAR-3 (Ovarian); [9]) [µM] | GI50 (DU-145 (Prostate); [10]) [µM] | GI50 (SN12C (Renal); [11]) [µM] | GI50 [2] [µM] | further results
1 | O=C1c2cc3c(cc2-c2c1c1ccc(Cl)cc1c(=O)n2C[C@H](O)[C@H](O)[C@H](O)CO)OCO3 | > 111 |  |  |  |  |  |  |  |  |  | 
2 | O=C1c2ccccc2-c2c1c1ccccc1c(=O)n2C[C@@H](O)CO [Compound 12b, (2′R)-5,6-Dihydro-6-[(2′,3′-dihydroxypropyl)]-5,11-dioxo-11H-indeno[1,2-c]isoquinoline] |  | 3.79 | 3.04 | 6.24 ± 0.22 | 4.36 | 5.72 | 16.1 | 2.34 | 3.77 |  | GI50 (HCT-116 (Colon); [8]): 4.47 µM; melting point: 200 to 205 °C
3 | O=C1c2cc3c(cc2-c2c1c1ccc(F)cc1c(=O)n2C[C@H](O)[C@@H](O)[C@H](O)CO)OCO3 | > 111 |  |  |  |  |  |  |  |  | 0.078 | 
4 | O=C1c2cc3c(cc2-c2c1c1cc(Cl)c(Cl)cc1c(=O)n2C[C@H](O)CO)OCO3 | > 111 |  |  |  |  |  |  |  |  | 0.013 | 
5 | O=C1c2cc3c(cc2-c2c1c1ccc(Cl)cc1c(=O)n2C[C@H](O)CO)OCO3 | > 111 |  |  |  |  |  |  |  |  | 0.042 | 
6 | O=C(CO)Cn1c2c(c3ccccc3c1=O)C(=O)c1ccccc1-2 [Compound 25, 5,6-Dihydro-6-(3′-hydroxy-2′-oxopropyl)-5,11-dioxo-11H-indeno[1,2-c]isoquinoline] |  | 40.7 | 32.3 | 20.9 | 58.9 | 20 | 5.23 | 17.8 | 81.3 |  | GI50 (HCT-116 (Colon); [8]): 30.9 µM; Growth Percent [3]: 72.36%
7 | O=C1c2ccccc2-c2c1c1ccccc1c(=O)n2C[C@H](O)[C@H](O)[C@H](O)[C@H](O)CO [Compound 17h, (2′S,3′S,4′R,5′R)-5,6-Dihydro-6-(2′,3′,4′,5′,6′-pentahydroxyhexyl)-5,11-dioxo-11H-indeno[1,2-c]isoquinoline] |  |  |  | 5.75 |  |  |  |  |  |  | GI50 (HOP-62 (Lung)): 3.23 µM; GI50 (MCF7 (Breast)): 1.78 µM; GI50 (UACC-62 (Melanoma)): 2.95 µM; GI50 (SF-539 (CNS)): 5.75 µM; GI50 (HCT-116 (Colon)): 4.17 µM; GI50 (OVCAR-3 (Ovarian)): 13.8 µM; GI50 (DU-145 (Prostate)): 3.31 µM; Growth Percent [3]: 49.31%; GI50 (SN12C (Renal)): 3.39 µM
8 | O=C1c2cc3c(cc2-c2c1c1ccc(F)cc1c(=O)n2C[C@H](O)CO)OCO3 | > 111 |  |  |  |  |  |  |  |  | 0.105 | 
9 | O=C1c2ccccc2-c2c1c1ccccc1c(=O)n2C[C@H](O)CO [Compound 12a, (2′S)-5,6-Dihydro-6-[(2′,3′-dihydroxypropyl)]-5,11-dioxo-11H-indeno[1,2-c]isoquinoline] |  | 5.01 | 4.9 | 8.71 | 5.37 | 7.41 | 14.5 | 5.75 | 6.92 |  | Top1 inhibitory activity (Human recombinant Top1): +++ (+++, between 75% and 95% activity)
10 | O=C1c2cc3c(cc2-c2c1c1cc(F)c(F)cc1c(=O)n2C[C@H](O)CO)OCO3 | > 111 |  |  |  |  |  |  |  |  | 0.068 | 

Reference: patent US9682990B2, “Alcohol-, diol-, and carbohydrate-substituted indenoisoquinolines as topoisomerase I inhibitors” (Purdue Research Foundation, priority 2011, dated 2017)
